Laboratory results reported in US11787799B2 (priority 2015, dated 2023).

Assays:
Echovirus 11 = experiment: microbe, parasite or virus in culture; type: cell-based; conditions: read-out: EC50 ECHO11
Poliovirus 1 = experiment: microbe, parasite or virus in culture; type: cell-based; conditions: read-out: EC50 PV1
Poliovirus 3 = experiment: microbe, parasite or virus in culture; type: cell-based; conditions: read-out: EC50 PV3
Enterovirus 71 = experiment: microbe, parasite or virus in culture; type: cell-based; conditions: read-out: EC50 EV71
Echovirus 6 = experiment: microbe, parasite or virus in culture; type: cell-based; conditions: read-out: EC50 ECHO06
Coxsackievirus B3-H3 = experiment: microbe, parasite or virus in culture; type: cell-based; conditions: read-out: EC50 CVB3-H3
Coxsackievirus A9 = experiment: microbe, parasite or virus in culture; type: cell-based; conditions: read-out: EC50 COX A9
Coxsackievirus B2 = experiment: microbe, parasite or virus in culture; type: cell-based; conditions: read-out: EC50 CVB2
Coxsackievirus B1 = experiment: microbe, parasite or virus in culture; type: cell-based; conditions: read-out: EC50 CVB1
Coxsackievirus B5 = experiment: microbe, parasite or virus in culture; type: cell-based; conditions: read-out: EC50 CVB5
Coxsackievirus B4 = experiment: microbe, parasite or virus in culture; type: cell-based; conditions: read-out: EC50 CVB4
Echovirus 7 = experiment: microbe, parasite or virus in culture; type: cell-based; conditions: read-out: EC50 ECHO07
Echovirus 9 = experiment: microbe, parasite or virus in culture; type: cell-based; conditions: read-out: EC50 ECHO09
[1] = system: Enterovirus D68/US/Mo/14-18949; experiment: Antiviral assay, Enterovirus D68 strain US/Mo/14-18949 in RD cells; type: cell-based
[2] = system: Enterovirus D68/US/KY/14-18953; experiment: Antiviral assay, Enterovirus D68 strain US/KY/14-18953 in RD cells; type: cell-based
Echovirus 25 = experiment: microbe, parasite or virus in culture; type: cell-based; conditions: read-out: EC50 ECHO25
Echovirus 30 = experiment: microbe, parasite or virus in culture; type: cell-based; conditions: read-out: EC50 ECHO30
Enterovirus D68/Fermon = experiment: Antiviral assay, Enterovirus D68 strain Fermon in RD cells; type: cell-based

Structure (SMILES) | EC50 (Echovirus 11) | EC50 (Poliovirus 1) | EC50 (Poliovirus 3) | EC50 (Enterovirus 71) | EC50 (Echovirus 6) | CC50 (HeLa-RW cells) | EC50 (Coxsackievirus B3-H3) | EC50 (Coxsackievirus A9) | CC50 (LLC cells) | EC50 (Coxsackievirus B2) | EC50 (Coxsackievirus B1) | EC50 (Coxsackievirus B5) | EC50 (Coxsackievirus B4) | EC50 (Echovirus 7) | EC50 (Echovirus 9) | EC50 (Echovirus 30) | also measured
CC(C)n1ncc2c(C(=O)Nc3ccccc3F)cc(-c3ccccc3)nc21 [JX-002] | 2900 nM | > 25000 nM | > 25000 nM | 5700 ± 1500 nM | 4400 ± 600 nM | 37500 nM | 4500 ± 1500 nM | 5000 nM | > 200000 nM |  |  |  |  |  |  |  | 
CC(C)n1ncc2c(C(=O)Nc3ccccc3F)cc(-c3ccncc3)nc21 [JX-003] | 5300 nM | > 25000 nM | > 25000 nM | > 10000 nM | 9200 ± 3200 nM | 37500 nM | 5100 ± 100 nM | 7000 ± 800 nM | 45000 nM |  |  |  |  |  |  |  | 
CC(C)n1ncc2c(C(=O)Nc3ccccc3F)cc(-c3ccccn3)nc21 [JX-004] | 3800 nM | > 25000 nM | > 25000 nM | > 10000 nM | 7800 ± 1800 nM | > 200000 nM | 6900 ± 700 nM | 6100 ± 2200 nM | 100000 nM |  |  |  |  |  |  |  | 
CC(C)n1ncc2c(C(=O)Nc3ccccc3F)cc(-c3cccnc3)nc21 [JX-005] | 4500 nM | > 25000 nM | > 25000 nM | > 10000 nM | 9000 nM | 37500 nM | 7000 ± 2400 nM | 7800 ± 2600 nM | 50000 nM |  |  |  |  |  |  |  | 
CC(C)n1ncc2c(C(=O)Nc3c(F)cccc3F)cc(-c3cccs3)nc21 [JX-009] | 2800 nM | > 25000 nM | > 25000 nM | 3400 ± 700 nM | 4900 ± 300 nM | > 200000 nM | 3200 ± 500 nM | 4000 nM | > 200000 nM |  |  |  |  |  |  |  | 
CC(C)n1ncc2c(C(=O)Nc3ccccc3F)cc(-c3cncs3)nc21 [JX-010] | 3200 nM | > 25000 nM | > 25000 nM | 3700 ± 200 nM | 4200 ± 300 nM | > 200000 nM | 3300 ± 1400 nM | 3100 nM | 100000 nM |  |  |  |  |  |  |  | 
CC(C)n1ncc2c(C(=O)Nc3cccc(F)c3)cc(-c3cccs3)nc21 [JX-021] |  | > 25000 nM | > 25000 nM | 2400 ± 800 nM | 1500 ± 500 nM | > 200000 nM | 1300 ± 200 nM | 1600 nM | > 200000 nM | 2600 ± 500 nM | 2600 ± 500 nM | 2300 nM | 2600 ± 500 nM | 2900 nM | 1200 nM |  | 
CC(C)n1ncc2c(C(=O)Nc3ccccn3)cc(-c3cccs3)nc21 [JX-040] | 500 nM | > 10000 nM | > 10000 nM | 500 ± 100 nM | 400 nM | > 200000 nM | 600 nM | 600 nM | > 200000 nM | 600 nM | 600 nM | 600 nM | 500 nM | 600 nM |  | < 400 nM | EC50 [1]: 170 ± 30 nM; EC50 [2]: 270 ± 60 nM; CC50 (RD cells): > 200000 nM; EC50 (Echovirus 25): 600 nM
CC(C)n1ncc2c(C(=O)Nc3ncccn3)cc(-c3cccs3)nc21 [JX-041] | 600 nM | > 10000 nM | > 10000 nM | 500 ± 100 nM | 400 nM | 37500 nM | 600 nM | 600 nM | 75000 nM | 600 nM | 600 nM | 600 nM | 600 nM | 700 nM |  | < 400 nM | EC50 (Echovirus 25): 600 nM
CC(C)n1ncc2c(C(=S)Nc3ccc(F)cc3)cc(-c3cccs3)nc21 [JX-046] | > 10000 nM |  |  | > 10000 nM | > 10000 nM |  |  | > 10000 nM | 20000 nM |  |  |  |  | > 10000 nM | > 10000 nM | 6250 nM | EC50 (Echovirus 25): > 10000 nM
CC(C)n1ncc2c(C(=O)Nc3cccc(S(=O)(=O)N(C)C)c3)cc(-c3cccs3)nc21 [JX-052] | 600 nM | > 10000 nM | > 10000 nM | 800 ± 100 nM |  | 12000 nM | 1200 nM | 800 nM | > 200000 nM | 1200 nM | 1200 nM | 1200 nM | 1200 nM | 780 nM | 200 nM | 400 nM | EC50 [1]: 310 ± 70 nM; EC50 [2]: 530 ± 290 nM; EC50 (Enterovirus D68/Fermon): 570 ± 250 nM; CC50 (RD cells): > 200000 nM
CNS(=O)(=O)c1cccc(NC(=O)c2cc(-c3cccs3)nc3c2cnn3C(C)C)c1 [JX-053] | 600 nM | > 10000 nM | > 10000 nM | 700 ± 100 nM |  | 12000 nM | 600 nM | 800 nM | 25000 nM | 600 nM | 600 nM | 600 nM | 600 nM | 450 nM | 200 nM | 600 nM | 
CC(C)n1ncc2c(C(=O)Nc3cccnc3)cc(-c3cccs3)nc21 [JX-056] | 200 nM | 10000 nM | 10000 nM | 500 ± 100 nM |  | 25000 nM | 600 nM | 600 nM | > 200000 nM | 600 nM | 600 nM | 600 nM | 600 nM | 450 nM | 200 nM | 300 nM | EC50 [1]: < 100 nM; EC50 [2]: 120 nM; EC50 (Enterovirus D68/Fermon): < 100 nM; CC50 (RD cells): 25000 nM
CC(C)n1ncc2c(C(=O)Nc3ccccn3)cc(-c3ccsc3)nc21 [JX-057] | 1200 nM | > 10000 nM | > 10000 nM | 800 nM |  | 18000 nM | 1200 nM |  | 25000 nM | 1200 nM | 1200 nM | 1200 nM | 1200 nM |  | 400 nM |  | 
CC(C)n1ncc2c(C(=O)Nc3ncccn3)cc(-c3ccsc3)nc21 [JX-058] | 1300 nM | > 10000 nM | > 10000 nM | 1200 nM |  | 40000 nM | 1200 nM |  | 50000 nM | 1200 nM | 1200 nM | 1200 nM | 1200 nM |  | 600 nM |  | 
CC(C)n1ncc2c(C(=O)Nc3ccncn3)cc(-c3ccsc3)nc21 [JX-059] | 1200 nM | > 10000 nM | > 10000 nM | 800 nM |  | > 200000 nM | 1200 nM |  | > 200000 nM | 1200 nM | 1200 nM | 1200 nM | 1200 nM |  | 400 nM |  | EC50 [1]: 570 ± 220 nM; EC50 [2]: 870 ± 310 nM; EC50 (Enterovirus D68/Fermon): 690 ± 90 nM; CC50 (RD cells): 75000 nM
CC(C)n1ncc2c(C(=O)N(C)c3ccccn3)cc(-c3cccs3)nc21 [JX-074] | > 10000 nM | > 10000 nM | > 10000 nM | > 10000 nM | > 10000 nM |  | > 10000 nM | > 10000 nM |  | > 10000 nM | > 10000 nM | > 10000 nM | > 10000 nM | > 10000 nM | > 10000 nM | > 10000 nM | EC50 (Echovirus 25): > 10000 nM
